Source: US10383977B2, “Cardiovascular prostheses” (CorMatrix Cardiovascular, Inc., priority 2011, dated 2019)

Test system: CCR2
Assay: In vitro assay, TNF-α stimulated CCR2 expression in THP-1 cells (quantitative PCR)
Assay type: cell-based, human
Conditions: THP-1 cells treated with TNF-α
Description: In the following study, the activity of cerivastatin and other statins, including simvastatin, lovastatin and atorvastatin, was similarly assessed using the human monocytic cell line THP-1. The THP-1 cells were similarly seeded by preparing a solution of THP-1 cells at 6×10^5 cells/ml and loading the solution of THP-1 cells onto a cell culture plate. The in vitro assay included six (6) treatment groups, including one (1) control group consisting of untreated THP-1 cells, one (1) positive control group consisting of THP-1 cells treated with tumor necrosis factor alpha (TNF-α) alone, four (4) treatment groups consisting of THP-1 cells treated with TNF-α and cerivastatin, TNF-α and simvastatin, TNF-α and lovastatin and TNF-α and atorvastatin. In this study, the THP-1 cells were treated with TNF-α to stimulate the production of CCR2. Each of the six (6) THP-1 cell samples were harvested and collected in a sealable vial and centrifuged to separate the liquid media from the THP-1 cells. The THP-1 cells were then collected and used for RNA extraction and quantitative PCR.

For CC(C)c1c(C(=O)Nc2ccccc2)c(-c2ccccc2)c(-c2ccc(F)cc2)n1CC[C@@H](O)C[C@@H](O)CC(=O)O [atorvastatin], the “expression of CCR2” value was “did not, however, restrict CCR2 expression at levels comparable to cerivastatin”.
In the case of CC[C@H](C)C(=O)O[C@H]1C[C@@H](C)C=C2C=C[C@H](C)[C@H](CC[C@@H]3C[C@@H](O)CC(=O)O3)[C@H]21 [lovastatin], the “expression of CCR2” value is reported as “did not, however, restrict CCR2 expression at levels comparable to cerivastatin”.
